Read-outs that look alike come from different tables or passages of the source.
Experiments:
JAK1 = JAK1 (Homo sapiens (Human), UniProt P23458); test: Biochemical kinase assay (33P-ATP filter-binding), JAK1
From the text: (§1) Biochemical Kinase Assay Protocol (JAK)
(§2) Reaction Procedure: • 1. […] Detected kinase activity by filter-binding method.

JAK2 = JAK2 (Homo sapiens (Human), UniProt O60674); test: Biochemical kinase assay (33P-ATP filter-binding), JAK2
From the text: as §1, §2

IL-4/pSTAT6 = test: Cytokine function assay IL-4/pSTAT6 in PBMC; assay type: cell-based
Experimental: (§3) Cytokine Function Assay Protocols for IL-4/pSTAT6 and GM-CSF/pSTAT5
IL-4/pSTAT6: • PBMC from a healthy donor was plated onto a 96 w plate. Compound was added and incubated for 1 hour (at 37° C.). After 1 hour, cells were stimulated with IL-4 for 15 minutes. Cells were fixed and stained with anti-pSTAT6 antibody. After staining, cells were read on a Beckman-Coulter CytoFLEX.

GM-CSF/pSTAT5 = test: Cytokine function assay GM-CSF/pSTAT5 in lysed whole blood cells; assay type: cell-based; conditions: read-out: IC50 GM-CSF
Experimental: as §3
GM-CSF/pSTAT5: • Whole blood from a healthy donor was lysed to remove red blood cells. Cells were plated onto a 96 well plate. Compound was added and incubated for 1 hour (at 37° C.). After 1 hour, cells were stimulated with GM-CSF for 15 minutes. Cells were fixed and stained with anti-pSTAT5 antibody. After staining, cells were read on a Beckman-Coulter CytoFLEX.

IL-31 = test: Cytokine function assay for IL-31 in DH82 cells; assay type: cell-based, canine; conditions: Canis lupus familiaris
Experimental: Cytokine Function Assay Protocol for IL-31
The protocol for the cytokine function assay for IL-31 is set forth below: • 1. […] After 24 hr, wash with 37° C. pre-warmed PBS (100 uL/well). • 3. Add serum-free MEM, 90 uL per well, 2 hr, 37° C. • 4. Add 10 uL 10×IL-31 (40, 10, 2.5 ug/mL) in duplicate, 5 min, 37° C. • 5. Remove medium, add 60 uL lysis buffer per well. Agitate on a plate shaker (˜350 rpm) for 10 min at RT. • 6. […] Add 6 uL Acceptor Mix, cover with aluminum foil, quickly spin at 1000 rpm, shake at 120 rpm for 2 min, then incubate at RT for 1 hr. • 8. Add 6 uL Donor Mix, cover with aluminum foil, quickly spin at 1000 rpm, shake at 120 rpm for 2 min, then incubate at RT for 1 hr. • 9. Measure the fluorescence using EnVision™ plate reader.

[1] = Dog LM (liver microsome) assay; assay type: in vitro ADME; conditions: predicted clearance as percent of liver blood flow
In short: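 Pooled Beagle liver microsomes (1 mg/ml protein), compound 1 μM, Tris pH 7.6 with 5 mM MgCl2, 37 °C, started with 1 mM NADPH; parent loss by LC-MS/MS over several time points.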

PDE4B = PDE4B (Homo sapiens (Human), UniProt Q07343); test: PDE4B inhibition; assay type: biochemical; conditions: Table 3b, comparator compounds
[2] = PBMC, read-out: IC50 IL-4, Table 3a
[3] = DH82, Table 3a, read-out: IC50 IL-31
[4] = Table 3a, 1 μM, 1 mg/ml microsomal protein

Sequence of JAK1 (P23458 whole entry, species assumed): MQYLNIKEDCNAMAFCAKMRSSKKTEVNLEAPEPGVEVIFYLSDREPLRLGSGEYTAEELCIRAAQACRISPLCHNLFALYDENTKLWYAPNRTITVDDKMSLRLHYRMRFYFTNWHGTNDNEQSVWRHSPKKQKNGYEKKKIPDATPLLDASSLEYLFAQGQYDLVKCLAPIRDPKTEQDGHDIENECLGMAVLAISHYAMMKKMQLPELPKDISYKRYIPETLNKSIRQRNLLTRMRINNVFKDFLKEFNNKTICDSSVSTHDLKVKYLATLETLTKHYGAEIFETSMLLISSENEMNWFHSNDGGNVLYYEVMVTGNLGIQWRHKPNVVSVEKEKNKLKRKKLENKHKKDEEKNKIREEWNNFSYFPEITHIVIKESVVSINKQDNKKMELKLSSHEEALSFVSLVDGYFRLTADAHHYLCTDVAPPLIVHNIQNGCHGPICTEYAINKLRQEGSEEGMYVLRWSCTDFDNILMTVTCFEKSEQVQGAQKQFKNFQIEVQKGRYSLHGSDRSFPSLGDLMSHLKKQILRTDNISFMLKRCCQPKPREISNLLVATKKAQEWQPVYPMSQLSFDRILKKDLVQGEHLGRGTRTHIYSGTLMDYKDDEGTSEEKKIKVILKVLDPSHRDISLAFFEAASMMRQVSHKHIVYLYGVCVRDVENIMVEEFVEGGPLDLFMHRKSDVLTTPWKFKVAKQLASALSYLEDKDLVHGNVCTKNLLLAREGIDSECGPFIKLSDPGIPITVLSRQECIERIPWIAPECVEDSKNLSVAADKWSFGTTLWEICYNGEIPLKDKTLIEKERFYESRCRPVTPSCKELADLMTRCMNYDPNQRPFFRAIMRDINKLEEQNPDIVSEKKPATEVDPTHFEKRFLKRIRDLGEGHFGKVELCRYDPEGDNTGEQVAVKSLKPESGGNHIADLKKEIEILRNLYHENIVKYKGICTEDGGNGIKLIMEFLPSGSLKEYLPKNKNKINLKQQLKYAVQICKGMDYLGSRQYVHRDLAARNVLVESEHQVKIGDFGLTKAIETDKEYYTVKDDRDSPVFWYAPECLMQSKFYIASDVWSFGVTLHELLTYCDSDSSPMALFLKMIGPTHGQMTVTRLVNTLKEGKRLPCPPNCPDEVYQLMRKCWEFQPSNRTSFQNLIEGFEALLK
Sequence of JAK2 (O60674 whole entry, species assumed): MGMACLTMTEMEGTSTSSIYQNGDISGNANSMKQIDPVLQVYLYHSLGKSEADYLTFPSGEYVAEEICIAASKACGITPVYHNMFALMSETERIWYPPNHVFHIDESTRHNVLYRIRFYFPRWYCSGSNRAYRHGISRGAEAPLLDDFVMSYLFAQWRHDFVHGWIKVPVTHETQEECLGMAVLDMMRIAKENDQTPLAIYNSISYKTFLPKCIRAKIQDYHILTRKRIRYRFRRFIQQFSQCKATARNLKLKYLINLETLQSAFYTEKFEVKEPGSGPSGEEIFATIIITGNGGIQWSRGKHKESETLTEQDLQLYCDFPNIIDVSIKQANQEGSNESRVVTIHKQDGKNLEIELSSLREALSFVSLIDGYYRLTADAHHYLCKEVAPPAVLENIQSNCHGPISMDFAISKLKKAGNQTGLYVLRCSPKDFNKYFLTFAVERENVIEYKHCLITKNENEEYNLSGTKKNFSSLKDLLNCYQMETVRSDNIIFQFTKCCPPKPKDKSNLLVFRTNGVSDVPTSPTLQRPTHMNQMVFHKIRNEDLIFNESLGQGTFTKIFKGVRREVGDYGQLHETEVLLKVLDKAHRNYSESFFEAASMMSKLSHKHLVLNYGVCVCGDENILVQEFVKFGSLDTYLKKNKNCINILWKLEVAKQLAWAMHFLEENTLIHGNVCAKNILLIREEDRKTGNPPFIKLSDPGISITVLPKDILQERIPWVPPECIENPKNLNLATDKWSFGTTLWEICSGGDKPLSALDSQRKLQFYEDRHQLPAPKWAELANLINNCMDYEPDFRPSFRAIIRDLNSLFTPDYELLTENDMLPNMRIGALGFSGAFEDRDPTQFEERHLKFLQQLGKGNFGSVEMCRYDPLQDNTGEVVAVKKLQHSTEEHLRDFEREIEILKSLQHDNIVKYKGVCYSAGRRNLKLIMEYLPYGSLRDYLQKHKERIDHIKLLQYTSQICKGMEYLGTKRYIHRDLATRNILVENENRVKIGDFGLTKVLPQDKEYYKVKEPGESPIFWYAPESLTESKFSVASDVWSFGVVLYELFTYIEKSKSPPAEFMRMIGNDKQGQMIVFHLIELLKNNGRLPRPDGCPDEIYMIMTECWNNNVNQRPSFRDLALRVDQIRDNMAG
Sequence of PDE4B (Q07343 whole entry, species assumed): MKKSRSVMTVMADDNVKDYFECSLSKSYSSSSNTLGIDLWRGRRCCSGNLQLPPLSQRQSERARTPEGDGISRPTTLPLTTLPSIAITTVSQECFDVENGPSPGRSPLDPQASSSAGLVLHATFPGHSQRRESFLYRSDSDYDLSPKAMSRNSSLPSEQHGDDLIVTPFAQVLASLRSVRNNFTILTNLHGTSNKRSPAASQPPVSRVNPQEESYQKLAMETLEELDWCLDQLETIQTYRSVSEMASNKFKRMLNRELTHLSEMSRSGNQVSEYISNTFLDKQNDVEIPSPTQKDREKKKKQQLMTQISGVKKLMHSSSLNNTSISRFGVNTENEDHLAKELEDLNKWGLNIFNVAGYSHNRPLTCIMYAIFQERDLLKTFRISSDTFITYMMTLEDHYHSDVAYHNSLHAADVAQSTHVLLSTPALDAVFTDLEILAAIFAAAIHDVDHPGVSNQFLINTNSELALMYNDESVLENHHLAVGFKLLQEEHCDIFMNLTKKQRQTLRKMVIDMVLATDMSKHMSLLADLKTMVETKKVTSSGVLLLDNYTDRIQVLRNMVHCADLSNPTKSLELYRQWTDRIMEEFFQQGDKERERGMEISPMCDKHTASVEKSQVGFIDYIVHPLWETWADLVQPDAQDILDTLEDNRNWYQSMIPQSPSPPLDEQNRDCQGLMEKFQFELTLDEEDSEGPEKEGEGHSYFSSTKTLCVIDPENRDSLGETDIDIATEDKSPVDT

Cc1cnc(Nc2cc(C)c3c(c2)COB3O)nc1N[C@@H]1COCC[C@H]1C#N (relative stereo) [Example 027, (trans)-3-((2-((1-hydroxy-7-methyl-1,3-dihydrobenzo[c][1,2]oxaborol-5-yl)amino)-5-methylpyrimidin-4-yl)amino)tetrahydro-2H-pyran-4-carbonitrile]
IC50 (JAK1; Table 3a, read-out: IC50 JAK1): 0.6 nM
IC50 (JAK2; Table 3a, read-out: IC50 JAK2): 3.5 nM
IC50 (IL-4/pSTAT6; [2]): 79.9 nM
IC50 (GM-CSF/pSTAT5; Whole blood cell): 1200 nM
IC50 (IL-31; [3]): 81.3 nM
Dog LM QH [1, 4]: 30.1%

Cc1cnc(Nc2cc(Cl)c3c(c2)COB3O)nc1NC1COCCC1C#N (racemic) [Example 031, (trans)-3-((2-((7-chloro-1-hydroxy-1,3-dihydrobenzo[c][1,2]oxaborol-5-yl)amino)-5-methylpyrimidin-4-yl)amino)tetrahydro-2H-pyran-4-carbonitrile]
IC50 (JAK1; Table 3a, read-out: IC50 JAK1): 1.2 nM
IC50 (JAK2; Table 3a, read-out: IC50 JAK2): 40.8 nM
IC50 (IL-4/pSTAT6; [2]): 67.5 nM
IC50 (GM-CSF/pSTAT5; Whole blood cell): 3150 nM
IC50 (IL-31; [3]): 27.6 nM
Dog LM QH [1, 4]: <19.9%

Cc1cnc(Nc2ccc3c(c2)COB3O)nc1N[C@@H]1CCCC[C@H]1C#N (relative stereo) [Example 008, (trans)2-[[2-[(1-hydroxy-3H-2,1-benzoxaborol-5-yl)amino]-5-methyl-pyrimidin-4-yl]amino]cyclohexane-1-carbonitrile]
IC50 (JAK1; Table 3a, read-out: IC50 JAK1): 0.3 nM
IC50 (JAK2; Table 3a, read-out: IC50 JAK2): 3.4 nM
IC50 (IL-4/pSTAT6; [2]): 95.9 nM
IC50 (GM-CSF/pSTAT5; Whole blood cell): 774 nM
IC50 (IL-31; [3]): 40.2 nM
Dog LM QH [1, 4]: <19.9%

Cc1cnc(Nc2cc(Cl)c3c(c2)COB3O)nc1NC1CCCCC1C#N (racemic) [Example 010, (trans)-2-[[2-[(7-chloro-1-hydroxy-1,3dihydrobenzo[c][1,2]oxaboroll-5-yl)amino]-5-methyl-pyrimidin-4-yl]amino]cyclohexane-1-carbonitrile]
IC50 (JAK1; Table 3a, read-out: IC50 JAK1): 0.7 nM
IC50 (JAK2; Table 3a, read-out: IC50 JAK2): 19.3 nM
IC50 (IL-4/pSTAT6; [2]): 71.7 nM
IC50 (GM-CSF/pSTAT5; Whole blood cell): 1020 nM
IC50 (IL-31; [3]): 18.1 nM
Dog LM QH [1, 4]: <19.9%

Cc1cnc(Nc2cc(Cl)c3c(c2)COB3O)nc1N[C@H]1CCCOC1 [Example 030b, (S)-7-chloro-5-((5-methyl-4-((tetrahydro-2H-pyran-3-yl)amino)pyrimidin-2-yl)amino)benzo[c][1,2]oxaborol-1(3H)-ol]
IC50 (JAK1; Table 3a, read-out: IC50 JAK1): 4.7 nM
IC50 (JAK2; Table 3a, read-out: IC50 JAK2): 91.9 nM
IC50 (IL-4/pSTAT6; [2]): 193 nM
IC50 (GM-CSF/pSTAT5; Whole blood cell): 4480 nM
IC50 (IL-31; DH82, read-out: IC50 IL-31): 25.8 nM
Dog LM QH [1, 4]: <19.9%

Cc1cnc(Nc2cc(Cl)c3c(c2)COB3O)nc1NC1CCCC[C@@H]1C#N (single isomer, unassigned) [Example 010a, (trans)-2-[[2-[(7-chloro-1-hydroxy-3H-2,1-benzoxaborol-5-yl)amino]-5-methyl-pyrimidin-4-yl]amino]cyclohexane-1-carbonitrile]
IC50 (JAK1; Table 3a, read-out: IC50 JAK1): 0.6 nM
IC50 (JAK2; Table 3a, read-out: IC50 JAK2): 4 nM
IC50 (IL-4/pSTAT6; [2]): 37.9 nM
IC50 (GM-CSF/pSTAT5; Whole blood cell): 469 nM
IC50 (IL-31; [3]): 12.7 nM
Dog LM QH [1, 4]: <19.9%

Cc1cnc(Nc2cc(Cl)c3c(c2)COB3O)nc1N[C@@H]1CCC[C@H]1C#N (single isomer, unassigned) [Example 003a, (trans)-2-((2-((7-chloro-1-hydroxy-1,3-dihydrobenzo[c][1,2]oxaborol-5-yl)amino)-5-methylpyrimidin-4-yl)amino)cyclopentane-1-carbonitrile]
IC50 (JAK1; Table 3a, read-out: IC50 JAK1): 0.7 nM
IC50 (JAK2; Table 3a, read-out: IC50 JAK2): 3.7 nM
IC50 (IL-4/pSTAT6; [2]): 93.3 nM
IC50 (GM-CSF/pSTAT5; Whole blood cell): 2220 nM
IC50 (IL-31; [3]): 9.2 nM
Dog LM QH [1, 4]: <19.9%

N#C[C@@H]1CCCC[C@H]1Nc1nc(Nc2ccc3c(c2)COB3O)ncc1Cl (relative stereo) [Example 017, (trans)-2-((5-chloro-2-((1-hydroxy-1,3-dihydrobenzo[c][1,2]oxaborol-5-yl)amino)pyrimidin-4-yl)amino)cyclohexane-1-carbonitrile]
IC50 (JAK1; Table 3a, read-out: IC50 JAK1): 0.4 nM
IC50 (JAK2; Table 3a, read-out: IC50 JAK2): 4.2 nM
IC50 (IL-4/pSTAT6; [2]): 233 nM
IC50 (GM-CSF/pSTAT5; Whole blood cell): 10000 nM
IC50 (IL-31; [3]): 35.4 nM
Dog LM QH [1, 4]: <19.9%

Cc1cnc(Nc2cc(Cl)c3c(c2)COB3O)nc1NC1CCCC1C#N (racemic) [Example 003, (trans)-2-((2-((7-chloro-1-hydroxy-1,3-dihydrobenzo[c][1,2]oxaborol-5-yl)amino)-5-methylpyrimidin-4-yl)amino)cyclopentane-1-carbonitrile]
IC50 (JAK1; Table 3a, read-out: IC50 JAK1): 0.7 nM
IC50 (JAK2; Table 3a, read-out: IC50 JAK2): 40 nM
IC50 (IL-4/pSTAT6; [2]): 106 nM
IC50 (GM-CSF/pSTAT5; Whole blood cell): 1430 nM
IC50 (IL-31; [3]): 21.2 nM
Dog LM QH [1, 4]: <19.9%

Cc1cnc(Nc2ccc3c(c2)COB3O)nc1NC1COCCC1C#N (racemic) [Example 026, (trans)-3-[[2-[(1-hydroxy-3H-2,1-benzoxaborol-5-yl)amino]-5-methyl-pyrimidin-4-yl]amino]tetrahydropyran-4-carbonitrile]
IC50 (JAK1; Table 3a, read-out: IC50 JAK1): 0.5 nM
IC50 (JAK2; Table 3a, read-out: IC50 JAK2): 7 nM
IC50 (IL-4/pSTAT6; [2]): 91.9 nM
IC50 (GM-CSF/pSTAT5; Whole blood cell): 2660 nM
IC50 (IL-31; [3]): 64.6 nM
Dog LM QH [1, 4]: <19.9%

Cc1cnc(Nc2cc3c(c(C(F)(F)F)c2)B(O)OC3)nc1NC1CCCCC1C#N (racemic) [Example 011, (trans)-2-((2-((1-hydroxy-7-(trifluoromethyl)-1,3-dihydrobenzo[c][1,2]oxaborol-5-yl)amino)-5-methylpyrimidin-4-yl)amino)cyclohexane-1-carbonitrile]
IC50 (JAK1; Table 3a, read-out: IC50 JAK1): 0.9 nM
IC50 (JAK2; Table 3a, read-out: IC50 JAK2): 37.5 nM
IC50 (IL-4/pSTAT6; [2]): 159 nM
IC50 (GM-CSF/pSTAT5; Whole blood cell): 1150 nM
IC50 (IL-31; [3]): 33.6 nM
Dog LM QH [1, 4]: <19.9%

N#C[C@H]1CCOC[C@@H]1Nc1nc(Nc2cc3c(c(C(F)(F)F)c2)B(O)OC3)ncc1Cl (single isomer, unassigned) [Example 042a, (trans)-3-((5-chloro-2-((1-hydroxy-7-(trifluoromethyl)-1,3-dihydrobenzo[c][1,2]oxaborol-5-yl)amino)pyrimidin-4-yl)amino)tetrahydro-2H-pyran-4-carbonitrile]
IC50 (JAK1; Table 3a, read-out: IC50 JAK1): 0.4 nM
IC50 (JAK2; Table 3a, read-out: IC50 JAK2): 7.3 nM
IC50 (IL-4/pSTAT6; [2]): 148 nM
IC50 (GM-CSF/pSTAT5; Whole blood cell): 2970 nM
IC50 (IL-31; [3]): 9.7 nM
Dog LM QH [1, 4]: <19.9%

Cc1cnc(Nc2cc3c(c(C(F)(F)F)c2)B(O)OC3)nc1N[C@H]1COC[C@@H]1C#N (single isomer, unassigned) [Example 043a, (trans)-4-[[2-[[1-hydroxy-7-(trifluoromethyl)-3H-2,1-benzoxaborol-5-yl]amino]-5-methyl-pyrimidin-4-yl]amino]tetrahydrofuran-3-carbonitrile]
IC50 (JAK1; Table 3a, read-out: IC50 JAK1): 0.9 nM
IC50 (JAK2; Table 3a, read-out: IC50 JAK2): 23.7 nM
IC50 (IL-4/pSTAT6; [2]): 267 nM
IC50 (GM-CSF/pSTAT5; Whole blood cell): 4140 nM
IC50 (IL-31; [3]): 45.4 nM
Dog LM QH [1, 4]: <19.9%

Cc1cnc(Nc2cc3c(c(C(F)(F)F)c2)B(O)OC3)nc1N[C@H]1CCCC[C@@H]1C#N (single isomer, unassigned) [Example 011a, (trans)-2-((2-((1-hydroxy-7-(trifluoromethyl)-1,3-dihydrobenzo[c][1,2]oxaborol-5-yl)amino)-5-methylpyrimidin-4-yl)amino)cyclohexane-1-carbonitrile]
IC50 (JAK1; Table 3a, read-out: IC50 JAK1): 0.4 nM
IC50 (JAK2; Table 3a, read-out: IC50 JAK2): 11.7 nM
IC50 (IL-4/pSTAT6; [2]): 151 nM
IC50 (GM-CSF/pSTAT5; Whole blood cell): 1480 nM
IC50 (IL-31; [3]): 107 nM
Dog LM QH [1, 4]: <19.9%

Cc1cc(Nc2ncc(Cl)c(N[C@H]3COCC[C@@H]3C#N)n2)cc2c1B(O)OC2 (single isomer, unassigned) [Example 041a, (trans)-3-[[5-chloro-2-[(1-hydroxy-7-methyl-3H-2,1-benzoxaborol-5-yl)amino]pyrimidin-4-yl]amino]tetrahydropyran-4-carbonitrile]
IC50 (JAK1; IC50 JAK1, Table 3a): 0.8 nM
IC50 (JAK2; IC50 JAK2, Table 3a): 3.1 nM
IC50 (IL-4/pSTAT6; [2]): 47 nM
IC50 (GM-CSF/pSTAT5; Whole blood cell): > 10000 nM
IC50 (IL-31; [3]): 40 nM
Dog LM QH [1, 4]: <19.9%

Cc1cnc(Nc2ccc3c(c2)COB3O)nc1NC1CCCCC1 [Example C011]
IC50 (JAK1; Table 3b, comparator compounds, read-out: IC50 JAK1): 3.2 nM
IC50 (JAK2; Table 3b, comparator compounds, read-out: IC50 JAK2): 32.9 nM
IC50 (PDE4B): 242 nM
Inhibition PDE4B @ 1 μM (PDE4B; 1 μM): 13%
IC50 (IL-4/pSTAT6; Table 3b, comparator compounds, read-out: IC50 IL-4): 2490 nM
IC50 (GM-CSF/pSTAT5; Table 3b, comparator compounds): 7700 nM
Dog LM QH ([1]; Table 3b, comparator compounds): 83.5%

Source: patent US20240132525A1, “BORON […], CO[…], METHODS AND USES THEREOF” (priority 2022, published 2024)
